In ChEMBL document CHEMBL5136974, “VHL-based PROTACs as potential therapeutic agents: Recent progress and perspectives” (Eur J Med Chem, 2022):

Tests used:
[1] = Inhibition of PRC2 (unknown origin); parameters: species or system Homo sapiens
Polycomb protein EED = Polycomb protein EED (Homo sapiens, UniProt O75530); assay: Binding affinity to EED (unknown origin) assessed as dissociation constant
[2] = biological target: T1, Receptor-interacting serine/threonine-protein kinase 2 (Homo sapiens, UniProt O43353); assay: Degradation of RIPK2 (unknown origin)
[3] = biological target: T1, Receptor-interacting serine/threonine-protein kinase 2; assay: Degradation of RIPK2 (unknown origin) at more than 10 nM relative to control
[4] = system: von Hippel-Lindau disease tumor suppressor/Epidermal growth factor receptor (Homo sapiens), P00533+P40337 [L858R]; assay: Protac activity against VHL/EGFR L858R mutant in human […] cells relative to control; type: cell-based
[5] = system: von Hippel-Lindau disease tumor suppressor/Epidermal growth factor receptor (Homo sapiens), P00533+P40337 [UNDEFINED MUTATION]; assay: Protac activity against VHL/EGFR deletion 19 mutant in human HCC827 cells relative to control; type: cell-based
[6] = biological target: von Hippel-Lindau disease tumor suppressor/Epidermal growth factor receptor (Homo sapiens, UniProt P00533+P40337, L858R); assay: Protac activity against VHL/EGFR L858R mutant in human […] cells; type: cell-based
[7] = biological target: T2, von Hippel-Lindau disease tumor suppressor/Epidermal growth factor receptor (Homo sapiens, UniProt P00533+P40337); assay: Protac activity against VHL/EGFR deletion 19 mutant in human HCC827 cells; type: cell-based
MOLM-14 = assay: Antiproliferative activity against human MOLM-14 cells; type: functional, cell-based
MV4-11 = assay: Antiproliferative activity against human MV4-11 cells; type: functional, cell-based
[8] = biological target: Dihydroorotate dehydrogenase (quinone), mitochondrial (Homo sapiens, UniProt Q02127); assay: Inhibition of DHODH (unknown origin)
[9] = biological target: von Hippel-Lindau disease tumor suppressor/Oxysterols receptor LXR-beta (Homo sapiens, UniProt P40337+P55055); assay: Protac activity at VHL/LXR (unknown origin) by TR-FRET assay
[10] = biological target: Serine/threonine-protein kinase B-raf (Homo sapiens) (UniProt P15056); assay: Inhibition of BRAF mutant (unknown origin) relative to control
[11] = Inhibition of BRAF mutant (unknown origin); parameters: species or system Homo sapiens
[12] = biological target: T3, von Hippel-Lindau disease tumor suppressor/Estrogen receptor (Homo sapiens, UniProt P03372+P40337); assay: Protac activity at VHL/ER (unknown origin) assessed as degradation of ER relative to control
Target sequence in this assay (P03372 whole entry, looked up): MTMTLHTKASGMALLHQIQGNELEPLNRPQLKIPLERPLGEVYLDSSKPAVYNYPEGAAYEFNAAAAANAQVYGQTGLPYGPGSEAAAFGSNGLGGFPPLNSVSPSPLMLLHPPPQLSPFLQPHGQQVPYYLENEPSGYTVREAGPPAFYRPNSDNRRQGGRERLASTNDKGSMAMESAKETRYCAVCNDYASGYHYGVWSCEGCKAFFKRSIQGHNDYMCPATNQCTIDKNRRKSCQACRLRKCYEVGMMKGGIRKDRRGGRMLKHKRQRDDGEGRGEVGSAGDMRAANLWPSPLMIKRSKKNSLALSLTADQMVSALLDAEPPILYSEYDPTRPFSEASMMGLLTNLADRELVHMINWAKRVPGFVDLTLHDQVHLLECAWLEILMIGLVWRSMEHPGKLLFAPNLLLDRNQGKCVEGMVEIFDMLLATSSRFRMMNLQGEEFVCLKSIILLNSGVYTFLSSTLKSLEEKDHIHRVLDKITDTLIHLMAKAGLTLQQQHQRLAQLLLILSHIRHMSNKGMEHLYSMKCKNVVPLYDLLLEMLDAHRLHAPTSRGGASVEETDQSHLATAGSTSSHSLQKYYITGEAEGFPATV
Target sequence in this assay (P40337 whole entry, looked up): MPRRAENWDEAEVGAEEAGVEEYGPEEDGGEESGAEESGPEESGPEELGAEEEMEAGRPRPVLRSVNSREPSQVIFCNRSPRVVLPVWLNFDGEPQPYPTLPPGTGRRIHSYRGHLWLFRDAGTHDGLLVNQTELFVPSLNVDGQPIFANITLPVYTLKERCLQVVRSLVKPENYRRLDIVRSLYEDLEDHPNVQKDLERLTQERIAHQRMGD

[13] = biological target: T3, von Hippel-Lindau disease tumor suppressor/Estrogen receptor; assay: Protac activity at VHL/ER (unknown origin) assessed as degradation of ER
Target sequence in this assay (P03372 whole entry): as the sequence (P03372 whole entry, looked up) above
Target sequence in this assay (P40337 whole entry): as the sequence (P40337 whole entry, looked up) above

MCF7 [14] = assay: Antiproliferative activity against human MCF7 cells; type: functional, cell-based
MCF7 [15] = assay: Antiproliferative activity against human MCF7 cells relative to control; type: functional
[16] = biological target: T4, von Hippel-Lindau disease tumor suppressor/Androgen receptor (Homo sapiens, UniProt P10275+P40337); assay: Protac activity at VHL/androgen receptor (unknown origin) assessed as degradation of androgen receptor; type: protein assay
[17] = biological target: T4, von Hippel-Lindau disease tumor suppressor/Androgen receptor; assay: Protac activity at VHL/full length androgen receptor (unknown origin) assessed as degradation of androgen receptor
[18] = biological target: von Hippel-Lindau disease tumor suppressor/3-hydroxy-3-methylglutaryl-coenzyme A reductase (Homo sapiens, UniProt P04035+P40337); assay: Protac activity at VHL/HMGCR in Insig-silenced human HepG2 cells; type: cell-based
HT-29 = assay: Antiproliferative activity against human HT-29 cells; type: functional, cell-based
SK-MEL-28 = assay: Antiproliferative activity against human SK-MEL-28 cells; type: functional, cell-based
[19] = system: von Hippel-Lindau disease tumor suppressor/Epidermal growth factor receptor (Homo sapiens), P00533+P40337 [L858R,T790M]; assay: Protac activity against VHL/geftinib-resistant EGFR L858R/T790M double mutant in human H1975 cells relative to control; type: cell-based; conditions: NCI-H1975
[20] = biological target: T5, von Hippel-Lindau disease tumor suppressor/Serine/threonine-protein kinase Sgk3 (Homo sapiens) (UniProt Q96BR1+P40337); assay: Protac activity at VHL/SGK3 in human HEK293 cells at […] measured within 8 hrs relative to control; type: cell-based
[21] = biological target: T5, von Hippel-Lindau disease tumor suppressor/Serine/threonine-protein kinase Sgk3 (Homo sapiens); assay: Protac activity at VHL/SGK3 in human HEK293 cells at […] measured within 2 hrs relative to control; type: cell-based
[22] = biological target: NPM/ALK (Nucleophosmin/ALK tyrosine kinase receptor) (Homo sapiens) (UniProt Q9UM73+P06748); assay: Inhibition of NPM-ALK in human SU-DHL-1 cells at […] relative to control; type: cell-based
[23] = biological target: ALK tyrosine kinase receptor (Homo sapiens, UniProt Q9UM73); assay: Inhibition of ALK (unknown origin) incubated for 1 hr by HTRF assay
[24] = biological target: von Hippel-Lindau disease tumor suppressor/Focal adhesion kinase 1 (Homo sapiens) (UniProt Q05397+P40337); assay: Protac activity at VHL/FAK in serum-free treated human PC-3 cells assessed as degradation of FAK measured after 24 hrs relative to control; type: cell-based
[25] = biological target: von Hippel-Lindau disease tumor suppressor/Cyclin-dependent kinase 4 (Homo sapiens, UniProt P11802+P40337); assay: Protac activity at VHL/CDK4 in human MM1.S cells assessed as degradation of CDK4 measured after 16 hrs; type: cell-based
[26] = biological target: T6, von Hippel-Lindau disease tumor suppressor/Cyclin-dependent kinase 6 (Homo sapiens, UniProt Q00534+P40337); assay: Protac activity at VHL/CDK6 in human MM1.S cells assessed as degradation of CDK6 measured after 16 hrs; type: cell-based
[27] = biological target: T6, von Hippel-Lindau disease tumor suppressor/Cyclin-dependent kinase 6; assay: Protac activity at VHL/CDK6 in human MM1.S cells assessed as degradation of CDK6 at 100 nM relative to control; type: cell-based
[28] = biological target: von Hippel-Lindau disease tumor suppressor/GTPase KRas (Homo sapiens, UniProt P01116+P40337, G12C); assay: Protac activity at VHL/KRAS G12C mutant (unknown origin); type: protein assay
[29] = biological target: T2, von Hippel-Lindau disease tumor suppressor/Epidermal growth factor receptor; assay: Protac activity against VHL/EGFR in human OVCAR-8 cells assessed as degradation of EGFR; type: cell-based
[30] = biological target: T2, von Hippel-Lindau disease tumor suppressor/Epidermal growth factor receptor; assay: Protac activity against VHL/EGFR in human OVCAR-8 cells assessed as degradation of EGFR relative to control; type: cell-based
SK-BR-3 = assay: Antiproliferative activity against human SK-BR-3 cells; type: functional, cell-based

Chain of von Hippel-Lindau disease tumor suppressor/Oxysterols receptor LXR-beta (P55055 whole entry): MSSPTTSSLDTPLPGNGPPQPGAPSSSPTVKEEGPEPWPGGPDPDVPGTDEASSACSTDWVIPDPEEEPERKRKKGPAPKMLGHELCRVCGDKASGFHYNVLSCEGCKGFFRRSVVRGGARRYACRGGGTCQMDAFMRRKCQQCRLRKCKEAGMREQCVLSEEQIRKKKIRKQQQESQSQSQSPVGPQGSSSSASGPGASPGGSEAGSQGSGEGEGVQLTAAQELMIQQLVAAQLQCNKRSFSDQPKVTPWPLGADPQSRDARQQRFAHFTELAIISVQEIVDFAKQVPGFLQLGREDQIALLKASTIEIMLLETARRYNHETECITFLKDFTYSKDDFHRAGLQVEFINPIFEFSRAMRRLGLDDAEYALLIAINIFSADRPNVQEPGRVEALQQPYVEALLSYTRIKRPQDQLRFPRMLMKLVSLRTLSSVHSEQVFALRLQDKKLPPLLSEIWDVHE
Chain of von Hippel-Lindau disease tumor suppressor/Oxysterols receptor LXR-beta (P40337 whole entry): as the sequence (P40337 whole entry, looked up) above
Chain of Polycomb protein EED (O75530 whole entry): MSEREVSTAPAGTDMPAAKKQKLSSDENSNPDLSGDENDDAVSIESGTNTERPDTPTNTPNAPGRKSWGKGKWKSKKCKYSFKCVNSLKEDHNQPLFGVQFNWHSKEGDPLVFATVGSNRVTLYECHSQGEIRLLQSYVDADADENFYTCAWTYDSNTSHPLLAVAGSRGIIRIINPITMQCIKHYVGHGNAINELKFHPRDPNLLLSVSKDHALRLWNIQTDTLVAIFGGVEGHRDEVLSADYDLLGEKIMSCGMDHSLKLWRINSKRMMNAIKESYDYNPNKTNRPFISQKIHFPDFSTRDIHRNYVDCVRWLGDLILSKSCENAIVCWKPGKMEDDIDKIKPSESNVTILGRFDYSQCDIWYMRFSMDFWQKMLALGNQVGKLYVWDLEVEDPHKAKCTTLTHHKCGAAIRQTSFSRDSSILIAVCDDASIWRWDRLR
T5 sequence (P40337 whole entry, looked up): as the sequence (P40337 whole entry, looked up) above
T5 sequence (Q96BR1 whole entry, looked up): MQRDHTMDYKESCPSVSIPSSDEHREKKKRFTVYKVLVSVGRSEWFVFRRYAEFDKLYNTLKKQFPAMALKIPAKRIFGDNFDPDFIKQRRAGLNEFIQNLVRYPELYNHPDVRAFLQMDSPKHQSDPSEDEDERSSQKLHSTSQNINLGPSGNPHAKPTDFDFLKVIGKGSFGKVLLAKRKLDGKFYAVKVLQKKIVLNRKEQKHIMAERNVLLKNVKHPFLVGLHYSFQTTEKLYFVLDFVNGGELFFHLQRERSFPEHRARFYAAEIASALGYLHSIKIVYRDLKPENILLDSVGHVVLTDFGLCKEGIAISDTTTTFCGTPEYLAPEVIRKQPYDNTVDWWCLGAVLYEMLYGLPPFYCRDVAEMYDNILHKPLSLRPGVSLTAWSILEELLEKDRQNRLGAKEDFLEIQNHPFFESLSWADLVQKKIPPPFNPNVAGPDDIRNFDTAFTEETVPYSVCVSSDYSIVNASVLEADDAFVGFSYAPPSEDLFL
T1 sequence (O43353 whole entry): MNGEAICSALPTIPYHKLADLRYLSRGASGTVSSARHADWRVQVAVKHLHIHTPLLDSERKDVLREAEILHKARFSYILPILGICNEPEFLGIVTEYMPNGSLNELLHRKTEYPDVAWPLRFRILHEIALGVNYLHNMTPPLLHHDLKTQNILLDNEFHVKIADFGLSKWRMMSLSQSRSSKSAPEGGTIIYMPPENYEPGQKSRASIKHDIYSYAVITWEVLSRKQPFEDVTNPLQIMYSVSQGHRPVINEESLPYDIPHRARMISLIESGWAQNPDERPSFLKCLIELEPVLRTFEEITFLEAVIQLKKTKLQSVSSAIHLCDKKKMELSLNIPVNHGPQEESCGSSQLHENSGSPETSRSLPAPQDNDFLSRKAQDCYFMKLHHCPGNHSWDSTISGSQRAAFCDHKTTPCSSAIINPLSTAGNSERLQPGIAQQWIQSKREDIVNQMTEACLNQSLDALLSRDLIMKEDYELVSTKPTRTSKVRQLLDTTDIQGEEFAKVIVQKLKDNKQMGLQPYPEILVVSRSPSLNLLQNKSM
Chain of Dihydroorotate dehydrogenase (quinone), mitochondrial (Q02127 whole entry): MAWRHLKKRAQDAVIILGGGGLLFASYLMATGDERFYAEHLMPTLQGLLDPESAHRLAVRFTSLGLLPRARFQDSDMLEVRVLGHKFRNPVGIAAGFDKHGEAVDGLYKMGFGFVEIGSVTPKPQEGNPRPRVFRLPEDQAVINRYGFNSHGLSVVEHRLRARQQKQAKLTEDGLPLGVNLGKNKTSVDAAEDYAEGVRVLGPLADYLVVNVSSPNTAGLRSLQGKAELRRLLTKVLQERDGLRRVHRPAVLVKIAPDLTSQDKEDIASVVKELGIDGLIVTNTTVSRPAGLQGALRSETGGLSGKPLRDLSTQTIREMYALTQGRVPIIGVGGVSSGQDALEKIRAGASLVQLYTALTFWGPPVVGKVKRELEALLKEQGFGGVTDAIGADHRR
Chain of von Hippel-Lindau disease tumor suppressor/Cyclin-dependent kinase 4 (P11802 whole entry): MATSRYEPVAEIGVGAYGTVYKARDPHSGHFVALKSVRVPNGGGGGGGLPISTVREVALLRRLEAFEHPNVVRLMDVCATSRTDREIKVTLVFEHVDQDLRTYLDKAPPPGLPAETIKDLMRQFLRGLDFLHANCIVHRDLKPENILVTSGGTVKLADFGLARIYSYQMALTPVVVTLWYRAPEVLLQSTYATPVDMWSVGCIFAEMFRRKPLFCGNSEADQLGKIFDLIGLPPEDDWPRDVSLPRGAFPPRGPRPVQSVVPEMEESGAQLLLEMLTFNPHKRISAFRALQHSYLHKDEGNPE
Chain of von Hippel-Lindau disease tumor suppressor/Cyclin-dependent kinase 4 (P40337 whole entry): as the sequence (P40337 whole entry, looked up) above

Cc1nc(CCC(=O)NCCCCC(=O)N[C@H](C(=O)N2C[C@H](O)C[C@H]2C(=O)NCc2ccc(-c3scnc3C)cc2)C(C)(C)C)ccc1-c1cnc(NCc2c(F)ccc3c2CCO3)n2cnnc12
pIC50 [1]: 8.1
Kd (Polycomb protein EED): 1 nM

Cc1ncsc1-c1ccc(CNC(=O)[C@@H]2C[C@@H](O)CN2C(=O)[C@@H](NC(=O)COCCOCCOCCOCCOc2cc3nccc(Nc4ccc5scnc5c4)c3cc2S(=O)(=O)C(C)(C)C)C(C)(C)C)cc1
DC50 [2]: 1.4 nM
Emax [3]: > 95%

COc1cc2ncnc(Nc3ccc(F)c(Cl)c3)c2cc1OCCCCCOCCOCCC(=O)N[C@H](C(=O)N1C[C@H](O)C[C@H]1C(=O)NCc1ccc(-c2scnc2C)cc1)C(C)(C)C
Emax [4]: 96.6%
Emax [5]: 98.9%
DC50 [6]: 22.3 nM
DC50 [7]: 11.7 nM

Cc1ncsc1-c1ccc(CNC(=O)[C@@H]2C[C@@H](O)CN2C(=O)[C@@H](NC(=O)CCOCCOCCOc2ccc3c(c2)sc2nc(-c4ccc(NC(=O)Nc5cc(C(C)(C)C)on5)cc4)cn23)C(C)(C)C)cc1
IC50 (MOLM-14): 0.6 nM
IC50 (MV4-11): 0.6 nM

Cc1ncsc1-c1ccc(CNC(=O)[C@@H]2C[C@@H](O)CN2C(=O)[C@@H](NC(=O)OCCOCCOCCOc2ccc(-c3ccc(-c4nc5ccc(F)cc5c(C(=O)O)c4C)cc3)cc2)C(C)(C)C)cc1
IC50 [8]: 93 nM

COC(=O)c1c(C)c(-c2ccc(-c3ccc(OCCOCCOCCOC(=O)N[C@H](C(=O)N4C[C@H](O)C[C@H]4C(=O)NCc4ccc(-c5scnc5C)cc4)C(C)(C)C)cc3)cc2)nc2ccc(F)cc12
IC50 [8]: > 200000 nM

Cc1ncsc1-c1ccc(CNC(=O)[C@@H]2C[C@@H](O)CN2C(=O)[C@@H](NC(=O)COCCOCCOCCOCCOCCNC(=O)Cc2cccc(OCCCN(Cc3cccc(C(F)(F)F)c3Cl)CC(c3ccccc3)c3ccccc3)c2)C(C)(C)C)cc1
EC50 [9]: 31 nM

CCCS(=O)(=O)Nc1ccc(F)c(C(=O)c2c[nH]c3ncc(-c4ccc(N5CCN(CC(=O)N[C@H](C(=O)N6C[C@H](O)C[C@H]6C(=O)NCc6ccc(-c7scnc7C)cc6)C(C)(C)C)CC5)cc4)cc23)c1F
Emax [10]: > 95%
IC50 [11]: 6.8 nM

Cc1ncsc1-c1ccc([C@H](C)NC(=O)[C@@H]2C[C@@H](O)CN2C(=O)[C@@H](NC(=O)CCCCOc2ccc(CCNC(=O)c3ccc(C(=O)c4c(-c5ccc(O)cc5)sc5cc(O)ccc45)cc3)cc2)C(C)(C)C)cc1
Emax [12]: 98%
DC50 [13]: 1.1 nM
IC50 (MCF7 [14]): 13.2 nM
Imax (MCF7 [15]): 69%

Cc1ncsc1-c1ccc([C@H](C)NC(=O)[C@@H]2C[C@@H](O)CN2C(=O)[C@@H](NC(=O)CCCCCNC(=O)COc2ccccc2-c2csc(N3CCOCC3)n2)C(C)(C)C)cc1
DC50 [16]: 370 nM
DC50 [17]: 2000 nM

Cc1ncsc1-c1ccc(CNC(=O)[C@@H]2C[C@@H](O)CN2C(=O)[C@@H](NC(=O)CCCCCCCCCCNC(=O)O[C@H]2C[C@@H](C)C=C3C=C[C@H](C)[C@H](CC[C@@H](O)C[C@@H](O)CC(=O)O)[C@H]32)C(C)(C)C)cc1
DC50 [18]: 120 nM

Cc1nc(CCC(=O)NCCOc2ccc(OCC(=O)N[C@H](C(=O)N3C[C@H](O)C[C@H]3C(=O)NCc3ccc(-c4scnc4C)cc3)C(C)(C)C)cc2)ccc1-c1cnc(NCc2c(F)ccc3c2CCO3)n2cnnc12
pIC50 [1]: 8.1
Kd (Polycomb protein EED): 1 nM

Cc1ncsc1-c1ccc([C@H](C)NC(=O)[C@@H]2C[C@@H](OC(=O)CCCCn3cc(CNC(=O)CC[C@H](NC(=O)c4ccc(NCc5cnc6nc(N)[nH]c(=O)c6n5)cc4)C(=O)O)nn3)CN2C(=O)[C@@H](NC(=O)CCCCCCCCCCNCCCONC(=O)c2ccc(F)c(F)c2Nc2ccc(I)cc2F)C(C)(C)C)cc1
IC50 (HT-29): 436 nM
IC50 (SK-MEL-28): 390 nM

Cc1ncsc1-c1ccc(CNC(=O)[C@@H]2C[C@@H](O)CN2C(=O)[C@@H](NC(=O)CCCCCOCCCCOCCCCOc2cc3ncnc(Nc4ccc(F)c(Cl)c4)c3cc2NC(=O)/C=C/CN(C)C)C(C)(C)C)cc1
Emax [19]: 79.1%

Cc1ccc(F)c(S(=O)(=O)Nc2ccc(-c3nc(OC[C@H]4CN(CCCCCCOCCOCCOCC(=O)N[C@H](C(=O)N5C[C@H](O)C[C@H]5C(=O)NCc5ccc(-c6scnc6C)cc5)C(C)(C)C)CCO4)c4cn[nH]c4n3)cc2)c1
Activity [20]: 80%
Activity [21]: 50%

Cc1cc(Nc2ncc(Cl)c(Nc3ccccc3S(=O)(=O)C(C)C)n2)c(OC(C)C)cc1C1CCN(C(=O)CCCC(=O)N[C@H](C(=O)N2C[C@H](O)C[C@H]2C(=O)NCc2ccc(-c3scnc3C)cc2)C(C)(C)C)CC1
inhibition [22]: 90%
IC50 [23]: 7 nM

O=C(O)Cc1cccc(OCCCN(Cc2cccc(C(F)(F)F)c2Cl)CC(c2ccccc2)c2ccccc2)c1
EC50 [9]: 20 nM

Cc1ncsc1-c1ccc(CNC(=O)[C@@H]2C[C@@H](O)CN2C(=O)[C@@H](NC(=O)CCOCCOc2ccc(Nc3ncc(C(F)(F)F)c(NCc4cccc(N(C)S(C)(=O)=O)c4)n3)cc2)C(C)(C)C)cc1
Emax [24]: 99%

CC(=O)c1c(C)c2cnc(Nc3ccc(N4CCN(CCOCCOCCOc5cc(-c6scnc6C)ccc5CNC(=O)[C@@H]5C[C@@H](O)CN5C(=O)[C@@H](NC(=O)C5(F)CC5)C(C)(C)C)CC4)cn3)nc2n(C2CCCC2)c1=O
DC50 [25]: 20 nM
DC50 [26]: 5.1 nM
Activity [27]: > 95%

Cc1ncsc1-c1ccc([C@H](C)NC(=O)[C@@H]2C[C@@H](O)CN2C(=O)[C@@H](NC(=O)CCCCOc2ccc(/C=N/NC(=O)c3ccc(C(=O)c4c(-c5ccc(O)cc5)sc5cc(O)ccc45)cc3)cc2)C(C)(C)C)cc1 (stereo in doubt)
Emax [12]: 95%
DC50 [13]: 10 nM

C=C(F)C(=O)N1CCN(c2nc(OC[C@@H]3CCCN3CCCOCCC(=O)N[C@H](C(=O)N3C[C@H](O)C[C@H]3C(=O)NCc3ccc(-c4scnc4C)cc3)C(C)(C)C)nc3c2CCN(c2cccc4cccc(Cl)c24)C3)C[C@@H]1CC#N
DC50 [28]: 250 nM

Cc1ncsc1-c1ccc(CNC(=O)[C@@H]2C[C@@H](O)CN2C(=O)[C@@H](NC(=O)COCCOCCOc2ccc(-c3ccc4ncnc(Nc5ccc(OCc6cccc(F)c6)c(Cl)c5)c4c3)cc2)C(C)(C)C)cc1
DC50 [29]: 39.2 nM
Emax [30]: 97.6%
IC50 (SK-BR-3): 102 nM
